Test results: PMC5337940, “Sansanmycin natural product analogues as potent and selective anti-mycobacterials that inhibit lipid I biosynthesis” (Nature Communications, 2017)
Values after ≈ are worked out from the molar mass of the structure shown.

Columns and labels:
Mtb H37Rv = assay: Resazurin reduction microplate assay, growth inhibition of Mtb H37Rv; assay type: cell-based, Mycobacterium tuberculosis; settings: average of two independent experiments, each in triplicate; for MIC50: Mycobacterium tuberculosis, H37RV, read-out: MIC50 Mtb H37Rv
Mtb MurX = Mtb MurX (Mycobacterium tuberculosis, UniProt P9WMW7); assay: Radiochemical (TLC) MurX-MurG coupled inhibition assay in Mtb mc2 6230 membranes; assay type: biochemical; settings: 200 nM inhibitor, decrease in lipid II formation
HEK293 cells = assay: Cytotoxicity counter-screen, resazurin reduction microplate assay; assay type: cell-based; settings: Homo sapiens, tested up to 200 μM, read-out: MIC50 (HEK293)

Chain of Mtb MurX (P9WMW7 whole entry): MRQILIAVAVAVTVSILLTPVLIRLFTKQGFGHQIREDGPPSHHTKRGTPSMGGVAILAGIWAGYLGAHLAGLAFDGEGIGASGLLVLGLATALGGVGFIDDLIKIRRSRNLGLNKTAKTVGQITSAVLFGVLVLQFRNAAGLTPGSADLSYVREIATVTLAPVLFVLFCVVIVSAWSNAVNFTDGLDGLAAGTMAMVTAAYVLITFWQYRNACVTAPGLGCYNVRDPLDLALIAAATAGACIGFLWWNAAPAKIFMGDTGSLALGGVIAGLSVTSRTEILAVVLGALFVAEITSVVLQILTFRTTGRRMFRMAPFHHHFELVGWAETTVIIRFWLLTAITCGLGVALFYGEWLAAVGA

| Compound | MIC50 (Mtb H37Rv) [µM] | inhibition at 0.2 µM (Mtb MurX) [%] | CC50 (HEK293 cells) [µM] | MIC50 Mtb H37Rv (Mtb H37Rv) [µM] |
| --- | --- | --- | --- | --- |
| NNC(=O)c1ccncc1 [INH, isoniazid, reference compound] | 0.025 ± 0.005 (≈ 0.00343 µg/mL) | – | – | – |
| CC(C)C[C@H](NC(=O)N[C@@H](Cc1c[nH]c2ccccc12)C(=O)O)C(=O)N[C@H](C(=O)NC[C@H]1C[C@@H](O)[C@H](n2ccc(=O)[nH]c2=O)O1)[C@H](C)N(C)C(=O)[C@@H](N)CCCCN [Compound 15] | 1.35 ± 0.07 (≈ 1.1 µg/mL) | 7 | > 200 | 0.95 to 1.35 |
| C[C@@H]([C@H](NC(=O)[C@H](CC[S+](C)[O-])NC(=O)N[C@@H](Cc1c[nH]c2ccccc12)C(=O)O)C(=O)NC[C@H]1C[C@@H](O)[C@H](n2ccc(=O)[nH]c2=O)O1)N(C)C(=O)[C@@H](N)Cc1cccc(O)c1 (stereo partly drawn) [Compound 6, Dihydrosansanmycin C] | 18.5 ± 0.7 (≈ 16.3 µg/mL) | 68 | > 200 | – |
| CSCC[C@H](NC(=O)N[C@@H](Cc1c[nH]c2ccccc12)C(=O)O)C(=O)N[C@H](C(=O)NC[C@H]1C[C@@H](O)[C@H](n2ccc(=O)[nH]c2=O)O1)[C@H](C)N(C)C(=O)[C@@H](N)c1cccc(O)c1 [Compound 4, Dihydrosansanmycin A] | 0.5 ± 0.05 (≈ 0.426 µg/mL) | 68 | > 200 | – |
| CC[C@@H](C)[C@H](NC(=O)N[C@@H](Cc1c[nH]c2ccccc12)C(=O)O)C(=O)N[C@H](C(=O)NC[C@H]1C[C@@H](O)[C@H](n2ccc(=O)[nH]c2=O)O1)[C@H](C)N(C)C(=O)CN [Compound 21] | 0.93 ± 0.11 (≈ 0.69 µg/mL) | 46 | > 200 | – |
| C[C@@H]([C@H](NC(=O)[C@H](Cc1cccnc1)NC(=O)N[C@@H](Cc1c[nH]c2ccccc12)C(=O)O)C(=O)NC[C@H]1C[C@@H](O)[C@H](n2ccc(=O)[nH]c2=O)O1)N(C)C(=O)CN [Compound 32] | – | 52 | > 200 | – |
| CC(C)C[C@H](NC(=O)N[C@@H](Cc1c[nH]c2ccccc12)C(=O)O)C(=O)N[C@H](C(=O)NC[C@H]1C[C@@H](O)[C@H](n2ccc(=O)[nH]c2=O)O1)[C@H](C)N(C)C(=O)[C@@H](N)CCCN [Compound 16] | 0.95 ± 0.07 (≈ 0.759 µg/mL) | 5 | > 200 | 0.95 to 1.35 |
| CCCCC[C@H](NC(=O)N[C@@H](Cc1c[nH]c2ccccc12)C(=O)O)C(=O)N[C@H](C(=O)NC[C@H]1C[C@@H](O)[C@H](n2ccc(=O)[nH]c2=O)O1)[C@H](C)N(C)C(=O)CN [Compound 23] | 0.51 ± 0.12 (≈ 0.385 µg/mL) | 59 | > 200 | – |
| C[C@@H]([C@H](NC(=O)[C@@H](NC(=O)N[C@@H](Cc1c[nH]c2ccccc12)C(=O)O)c1ccccc1)C(=O)NC[C@H]1C[C@@H](O)[C@H](n2ccc(=O)[nH]c2=O)O1)N(C)C(=O)CN [Compound 34] | > 6.25 | 51 | > 200 | – |
| C[C@H](O)[C@H](NC(=O)N[C@@H](Cc1c[nH]c2ccccc12)C(=O)O)C(=O)N[C@H](C(=O)NC[C@H]1C[C@@H](O)[C@H](n2ccc(=O)[nH]c2=O)O1)[C@H](C)N(C)C(=O)CN [Compound 26] | 2.8 (≈ 2.04 µg/mL) | 40 | > 200 | 2.80 ± 0.70 (≈ 2.04 µg/mL) |
| CC(C)C[C@H](NC(=O)N[C@@H](Cc1c[nH]c2ccccc12)C(=O)O)C(=O)N[C@H](C(=O)NC[C@H]1C[C@@H](O)[C@H](n2ccc(=O)[nH]c2=O)O1)[C@H](C)N(C)C(=O)[C@@H](N)Cc1cccnc1 [Compound 8] | 5.85 ± 2.33 (≈ 4.87 µg/mL) | 5 | > 200 | – |
| C[C@@H]([C@H](NC(=O)[C@H](CCc1ccccc1)NC(=O)N[C@@H](Cc1c[nH]c2ccccc12)C(=O)O)C(=O)NC[C@H]1C[C@@H](O)[C@H](n2ccc(=O)[nH]c2=O)O1)N(C)C(=O)CN [Compound 35] | 1.08 ± 0.1 (≈ 0.853 µg/mL) | – | > 200 | – |
| CO[C@H]1/C=C/O[C@@]2(C)Oc3c(C)c(O)c4c(O)c(c(/C=N/N5CCN(C)CC5)c(O)c4c3C2=O)NC(=O)/C(C)=C\C=C\[C@H](C)[C@H](O)[C@@H](C)[C@@H](O)[C@@H](C)[C@H](OC(C)=O)[C@@H]1C [RIF, Rifampicin, reference compound] | 0.006 ± 0.002 (≈ 0.00494 µg/mL) | – | – | – |
